Measurements from patent US20240334934A1, “FUNGICIDE MIXTURE” (priority 2021, published 2024).

Experiments:
Format in all cases: cell-based
[1] = tested on: Zymoseptoria tritici K6105; assay: Efficacy of mixtures of streptimidone and CtmC, liquid culture in PDB, optical density 620 nm; conditions: for Emax at 1.23 ppm: K6105, Streptimidone 1.23 ppm alone (CtmC 0); for Emax at 3.7 ppm: K6105, Streptimidone 3.70 ppm alone (CtmC 0); for Emax at 11.11 ppm: K6105, Streptimidone 11.11 ppm alone (CtmC 0); for Emax at 33.33 ppm: K6105, Streptimidone 33.33 ppm alone (CtmC 0)
[2] = tested on: Zymoseptoria tritici K6420; assay: as above
[3] = tested on: Gibberella zeae (Fusarium graminearum); assay: microbe, parasite or virus in culture; conditions: read-out: % Efficacy
Microdochium nivale = assay: Efficacy of mixtures of streptimidone and CtmC, liquid culture in PDB, optical density 620 nm
[4] = tested on: Zymoseptoria tritici K6318; assay: as above
[5] = tested on: Fusarium Virguliforme K6285; assay: as above
[6] = tested on: Fusarium Virguliforme K6286; assay: as above
[7] = Streptimidone 0.41 ppm alone (CtmC 0)
[8] = Streptimidone 1.23 ppm alone (CtmC 0)
[9] = Streptimidone 3.70 ppm alone (CtmC 0)
[10] = Streptimidone 11.11 ppm alone (CtmC 0)
[11] = Streptimidone 33.33 ppm alone (CtmC 0)
[12] = Streptimidone 0.14 ppm alone (CtmC 0)
[13] = Streptimidone 100 ppm alone (CtmC 0)

Compound `C=C/C(C)=C/[C@H](C)C(=O)C[C@H](O)CC1CC(=O)NC(=O)C1` [Streptimidone] has an Emax at 0.41 ppm ([1]; K6105, Streptimidone 0.41 ppm alone (CtmC 0), lower sub-table) of 7%, an Emax at 1.23 ppm ([1]; lower sub-table) of 17% and an Emax at 1.23 ppm ([1]; upper sub-table) of 27%. For the same compound, the Emax at 3.7 ppm ([1]; lower sub-table) was 32%, the Emax at 3.7 ppm ([1]; upper sub-table) was 39% and the Emax at 11.11 ppm ([1]; lower sub-table) was 48%. It also gave an Emax at 11.11 ppm ([1]; upper sub-table) of 59%, an Emax at 33.33 ppm ([1]; lower sub-table) of 67% and an Emax at 33.33 ppm ([1]; upper sub-table) of 81%. It also gave an Emax at 100 ppm ([1]; K6105, Streptimidone 100 ppm alone (CtmC 0), lower sub-table) of 83%, an Emax at 0.41 ppm ([2]; K6420, Streptimidone 0.41 ppm alone (CtmC 0)) of 7% and an Emax at 1.23 ppm ([2]; K6420, Streptimidone 1.23 ppm alone (CtmC 0)) of 17%. For the same compound, the Emax at 3.7 ppm ([2]; K6420, Streptimidone 3.70 ppm alone (CtmC 0)) was 32%, the Emax at 11.11 ppm ([2]; K6420, Streptimidone 11.11 ppm alone (CtmC 0)) was 48% and the Emax at 33.33 ppm ([2]; K6420, Streptimidone 33.33 ppm alone (CtmC 0)) was 67%. It also gave an Emax at 100 ppm ([2]; K6420, Streptimidone 100 ppm alone (CtmC 0)) of 83%, an Emax at 33.33 ppm [3] of 50% and an Emax at 100 ppm [3] of 63%. For the same compound, the Emax at 0.41 ppm (Microdochium nivale; [7]) was 0%, the Emax at 1.23 ppm (Microdochium nivale; [8]) was 0% and the Emax at 3.7 ppm (Microdochium nivale; [9]) was 5%. For the same compound, the Emax at 11.11 ppm (Microdochium nivale; [10]) was 8%, the Emax at 33.33 ppm (Microdochium nivale; [11]) was 22% and the Emax at 0.14 ppm [4, 12] was 0%. For the same compound, the Emax at 0.41 ppm [4, 7] was 0%, the Emax at 1.23 ppm [4, 8] was 0% and the Emax at 3.7 ppm [4, 9] was 3%. For the same compound, the Emax at 11.11 ppm [4, 10] was 8%, the Emax at 33.33 ppm [4, 11] was 18% and the Emax at 100 ppm [4, 13] was 44%. The Emax at 0.14 ppm [5, 12] was 10%, the Emax at 0.41 ppm [5, 7] was 21% and the Emax at 1.23 ppm [5, 8] was 13%. The Emax at 3.7 ppm [5, 9] was 18%, the Emax at 11.11 ppm [5, 10] was 18% and the Emax at 33.33 ppm [5, 11] was 26%. The Emax at 100 ppm [5, 13] was 53%, the Emax at 0.14 ppm [6, 12] was 8% and the Emax at 0.41 ppm [6, 7] was 16%. The Emax at 1.23 ppm [6, 8] was 14%, the Emax at 3.7 ppm [6, 9] was 16% and the Emax at 11.11 ppm [6, 10] was 16%. The Emax at 33.33 ppm [6, 11] was 30% and the Emax at 100 ppm [6, 13] was 47%.
